Measurements from patent US8648116B2, “Derivatives of N-(arylamino) sulfonamides including polymorphs as inhibitors of MEK as well as compositions, methods of use and methods for preparing the same” (Ardea Biosciences, Inc., priority 2005, dated 2014).

Legend:
[1] = system: pERK in Colo205 tumors; test: MEK inhibition (pERK, Western blot) against plasma concentration, tumor; type: in vivo, nu/nu mice
Protocol: Human tumors were implanted in nu/nu mice. Compound A was administered orally for 14 days once tumors were approximately 100 mm^3 in size. Tumor growth inhibition (TGI) was determined after 14 days of treatment as the reduction in the size of tumors in treated groups versus vehicle controls. The time to endpoint (TTE) was calculated as the time for the tumor to reach the specified endpoint volume or the last day of the study, whichever came first. Treatment outcome was determined from percent tumor growth delay (% TGD), defined as the percent increase in median TTE of treated versus vehicle-treated control mice. Animals were also monitored for regression responses. Levels of pERK in tumors and brain were determined by Western blots and correlated with plasma levels of Compound A for the pharmacodynamic/pharmacokinetic study. A number of tumor models were evaluated with different doses and dosing regimens. […] The effect of different dosing regimens was evaluated in A375 xenografts.
Female nu/nu mice implanted with Colo205 tumor cells were given a single dose of vehicle or Compound A at 2.5, 5, 10, or 25 mg/kg. Compound levels were determined in plasma samples and pERK levels were determined in tumor and brain samples collected at 2, 6, 12, and 24 hr post-dose. […]

[2] = system: Complete Freund's Adjuvant induced arthritis; test: Rat adjuvant arthritis inflammation assay; type: in vivo, rats; conditions: 20 mg/kg orally for 5 days
Protocol: In the rat adjuvant induced arthritis model, Complete Freund's Adjuvant (CFA) is injected into the right hind paw of rats to induce pathologies similar to rheumatoid arthritis in humans. Compound A was administered orally for 5 consecutive days at 2, 6, and 20 mg/kg. Dexamethasone at 5 m g/kg was also administered orally for 5 days. Enbrel at 10 mg/kg was administered by subcutaneous injection on days 1 and 4. CFA was injected into the right hind paw one hour after the first dose on day 1. […] Polyarthritis was scored as the presence of swelling in front paws, tail, nose or ear.

[3] = Concentration-time profiles after a single dose of capsules; design: species or system human cancer patients; conditions: human, in vivo, oral, capsules of example 95A
[4] = system: carrageenan-induced hind paw edema; test: Carrageenan-induced paw edema (CPE); type: in vivo, Sprague-Dawley rats; conditions: 6, 20 & 60 mg/kg orally 2 hr before carrageenan; all dose groups
Protocol: Compound A (6, 20 & 60 mg/kg) or indomethacin (3 mg/kg) were administered orally 2 hr prior to injection of 1% suspension of carrageenan into the right hind foot pad of male Sprague-Dawley rats (N-6 per treatment group). The hind paw edema was measured 3 hr later by assessing paw volume by plethysmography. Reduction of hind paw edema by 30% or greater indicates significant acute anti-inflammatory activity. Indomethacin (Indo) was used as a positive control drug.

[5] = system: gastric carcinoma Hs746t cells; test: Cell proliferation assay (CellTiterGlo, 48 hours); type: cell-based, human; conditions: 48 hours treatment
Protocol: Human gastric carcinoma Hs746t cells were obtained from ATCC (Manassas, Va.). […] For cell proliferation experiments, cells were plated in white 96-well plates with clear bases at 3000 cells/100 μl/well.

[6] = system: MDA-MB231 breast adenocarcinoma cells; test: Anchorage-dependent growth inhibition (ATP content, 48 hr); type: cell-based, human
[7] = system: A375 cells; test: Evaluation of cell cycle arrest (propidium iodide, flow cytometry); type: cell-based, human; conditions: 24 hr
Protocol: A375 cells were plated in 96-well microplates at 10,000 cells/200 μl/well. […] After another 24 hr, cells were trypsinized, fixed in 200 μl Prefer (Anatech, Battle Creek, Mich.), and stored at 4° C. overnight. Cells were then rinsed in PBS, permeabilized and stained in 0.1% Triton X-100, 200 μg/ml DNase-free RNase, and […] propidium iodide (Molecular Probes, Sunnyvale, Calif.), and analyzed on the Guava PCA-96 (Guava Technologies, Foster City, Calif.). Data were analyzed using ModFit LT (version 3.0, Verity, Topsham, Me.).

COc1cc(F)c(F)c(Nc2ccc(I)cc2F)c1NS(=O)(=O)C1(C[C@H](O)CO)CC1 [Compound A]
pERK formation in tumors ([1]; Colo205 xenografts, pharmacodynamic/pharmacokinetic study): inhibition of pERK formation
EC50 ([1]; Mus musculus, COLO 205, plasma concentration, Colo205-bearing nu/nu mice, single dose 2.5-25 mg/kg, non-linear regression): 73 nM
animals without front paw swelling (polyarthritis scoring) [2]: 2 of 6
animals without swelling in the tail (polyarthritis scoring) [2]: 4 of 6
inhibition of paw swelling ([2]; acute and delayed phases): significant reduction in swelling
Cmax ([3]; 2 mg, 2 mg dose, Day 35): 0.202 ng/mL
Tmax ([3]; 2 mg, 2 mg dose, Day 35): 2 h
Tmax ([3]; 4 mg, 4 mg dose, Day 1): 1.5 h
Cmax ([3]; 4 mg, 4 mg dose, Day 35): 0.544 ng/mL
Tmax ([3]; 4 mg, 4 mg dose, Day 35): 1 h
Cmax ([3]; 10 mg, 10 mg dose, Day 35): 1.57 ng/mL
Cmax ([3]; 20 mg, 20 mg dose, Day 35): 3.28 ng/mL
AUC ([3]; 2 mg dose, Day 35): 2.07 ng·h/mL
AUC ([3]; 4 mg dose, Day 35): 5.12 ng·h/mL
AUC ([3]; 10 mg dose, Day 35): 14.3 ng·h/mL
AUC ([3]; 20 mg dose, Day 35): 29.5 ng·h/mL
hind paw edema (paw volume) [4]: significant anti-inflammatory activity

COc1cc(F)c(F)c(Nc2ccc(I)cc2F)c1NS(=O)(=O)C1(C[C@H](O)CO)CC1
proliferation of Hs746t cells [5]: inhibits the proliferation
GI50 ([6]; MDA (MDA-MB231), 48 hr, ATP content): > 1000 nM
growth arrest in 2-dimensional anchorage dependent assays ([6]; MDA-MB231 cells): do not show
effect on cell cycle progression [7]: arrest in the G1 phase of the cell cycle
